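A five-concentration, 48-hour dose response in 96-well plates underlies each endpoint, interpolated linearly between surrounding concentrations. The concentration for 50% growth inhibition is given as GI50. TGI marks complete inhibition of growth.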
Legend:
Experiment in all cases: inhibition of tumour cell growth, NCI panel, 48 h
CCRF-CEM leukemia = tested on: CCRF-CEM leukemia
UACC-257 melanoma = tested on: UACC-257 melanoma
SNB-19 CNS = tested on: SNB-19 CNS
M14 melanoma = tested on: M14 melanoma
MOLT-4 leukemia = tested on: MOLT-4 leukemia
BT-549 breast = tested on: BT-549 breast
NCI-H522 lung = tested on: NCI-H522 lung
LOX IMVI melanoma = tested on: LOX IMVI melanoma
TK-10 renal = tested on: TK-10 renal
NCI-H226 lung = tested on: NCI-H226 lung
SW-620 colon = tested on: SW-620 colon
PC-3 prostate = tested on: PC-3 prostate
DU-145 prostate = tested on: DU-145 prostate
HCC-2998 colon = tested on: HCC-2998 colon
NCI-H23 lung = tested on: NCI-H23 lung
UO-31 renal = tested on: UO-31 renal
OVCAR-8 ovarian = tested on: OVCAR-8 ovarian
IGROV1 ovarian = tested on: IGROV1 ovarian
SNB-75 CNS = tested on: SNB-75 CNS
HCT-116 colon = tested on: HCT-116 colon
SF-539 CNS = tested on: SF-539 CNS
SK-MEL-28 melanoma = tested on: SK-MEL-28 melanoma
SN12C renal = tested on: SN12C renal
OVCAR-5 ovarian = tested on: OVCAR-5 ovarian
NCI/ADR-RES ovarian = tested on: NCI/ADR-RES ovarian
A549 NSCLC = tested on: A549 NSCLC
OVCAR-4 ovarian = tested on: OVCAR-4 ovarian

CCCCCc1c(C)[nH]c(/C=c2\[nH]/c(=C3/C=c4ccccc4=N3)cc2OC)c1C
GI50 (CCRF-CEM leukemia): 43.5 nM
TGI (CCRF-CEM leukemia): 6030 nM
GI50 (UACC-257 melanoma): 394 nM
TGI (UACC-257 melanoma): 1730 nM
GI50 (SNB-19 CNS): 226 nM
TGI (SNB-19 CNS): 15400 nM
GI50 (M14 melanoma): 29.5 nM
TGI (M14 melanoma): 375 nM
GI50 (MOLT-4 leukemia): 102 nM
TGI (MOLT-4 leukemia): 3850 nM
GI50 (BT-549 breast): 80 nM
TGI (BT-549 breast): 2140 nM
GI50 (NCI-H522 lung): 101 nM
TGI (NCI-H522 lung): 1700 nM
GI50 (LOX IMVI melanoma): 24.8 nM
TGI (LOX IMVI melanoma): 67.6 nM
GI50 (TK-10 renal): 50.4 nM
TGI (TK-10 renal): 716 nM
GI50 (NCI-H226 lung): 77.7 nM
TGI (NCI-H226 lung): 3950 nM
GI50 (SW-620 colon): 34.1 nM
TGI (SW-620 colon): 2840 nM
GI50 (PC-3 prostate): 54.4 nM
TGI (PC-3 prostate): > 100000 nM
GI50 (DU-145 prostate): 91.1 nM
TGI (DU-145 prostate): 16400 nM
GI50 (HCC-2998 colon): 45.2 nM
TGI (HCC-2998 colon): 5880 nM
GI50 (NCI-H23 lung): 236 nM
TGI (NCI-H23 lung): 3100 nM
GI50 (UO-31 renal): 88.2 nM
TGI (UO-31 renal): 329 nM
GI50 (OVCAR-8 ovarian): 297 nM
TGI (OVCAR-8 ovarian): 1670 nM
GI50 (IGROV1 ovarian): 265 nM
TGI (IGROV1 ovarian): 5250 nM
GI50 (SNB-75 CNS): 107 nM
TGI (SNB-75 CNS): 583 nM
GI50 (HCT-116 colon): 28 nM
TGI (HCT-116 colon): 1070 nM
GI50 (SF-539 CNS): 60.4 nM
TGI (SF-539 CNS): 659 nM
GI50 (SK-MEL-28 melanoma): 125 nM
TGI (SK-MEL-28 melanoma): 1220 nM
GI50 (SN12C renal): 92.6 nM
TGI (SN12C renal): 1880 nM
GI50 (OVCAR-5 ovarian): 65.4 nM
TGI (OVCAR-5 ovarian): 1810 nM
GI50 (NCI/ADR-RES ovarian): 170 nM
TGI (NCI/ADR-RES ovarian): 3720 nM
GI50 (A549 NSCLC): 73.2 nM
TGI (A549 NSCLC): 636 nM
GI50 (OVCAR-4 ovarian): 68.7 nM
TGI (OVCAR-4 ovarian): 16300 nM
